Experimental data taken from article PMC12028158, “Synthesis and In Vitro Evaluation of the Anticancer Effect of Novel Phosphonium Vindoline Derivatives” (International Journal of Molecular Sciences, 2025).
Like-named read-outs stand apart in the source and are kept apart here.

Tests used:
Assay type in all cases: cell-based
[1] = system: ACHN; experiment: NCI60 one-dose screen; conditions: Homo sapiens, read-out: Growth percent
[2] = system: HCT-116; experiment: NCI60 one-dose screen; conditions: Homo sapiens
[3] = system: SK-MEL-28; experiment: NCI60 one-dose screen; conditions: Homo sapiens
[4] = system: NCI-H322M; experiment: NCI60 five-dose screen; conditions: Homo sapiens
[5] = system: SK-OV-3; experiment: NCI60 one-dose screen; conditions: Homo sapiens
[6] = system: MALME-3M; experiment: NCI60 one-dose screen; conditions: Homo sapiens, read-out: Growth percent
[7] = system: NCI/ADR-RES; experiment: NCI60 five-dose screen; conditions: Homo sapiens
[8] = system: SK-MEL-5; experiment: NCI60 one-dose screen; conditions: Homo sapiens
[9] = system: COLO 205; experiment: NCI60 five-dose screen; conditions: Homo sapiens
[10] = system: 60 human tumor cell lines (NCI60); experiment: NCI60 one-dose screen, overall mean; conditions: for activity at 10 µM: Homo sapiens, read-out: Mean growth percent; for average reduction / average cell death: 10 µM, average over cell lines
[11] = system: OVCAR-3; experiment: NCI60 one-dose screen; conditions: Homo sapiens
[12] = system: SNB-75; experiment: NCI60 one-dose screen; conditions: Homo sapiens
[13] = system: RPMI-8226; experiment: NCI60 one-dose screen; conditions: Homo sapiens
[14] = system: HL-60(TB); experiment: NCI60 five-dose screen; conditions: Homo sapiens
[15] = system: K-562; experiment: NCI60 one-dose screen; conditions: Homo sapiens
[16] = system: NCI-H23; experiment: NCI60 five-dose screen; conditions: Homo sapiens
[17] = system: HS 578T; experiment: NCI60 five-dose screen; conditions: Homo sapiens
[18] = system: OVCAR-4; experiment: NCI60 one-dose screen; conditions: Homo sapiens
[19] = system: KM12; experiment: NCI60 five-dose screen; conditions: Homo sapiens
[20] = system: SF-268; experiment: NCI60 five-dose screen; conditions: Homo sapiens
[21] = system: OVCAR-5; experiment: NCI60 one-dose screen; conditions: Homo sapiens
[22] = system: SNB-19; experiment: NCI60 one-dose screen; conditions: Homo sapiens
[23] = system: DU-145; experiment: NCI60 five-dose screen; conditions: Homo sapiens
[24] = system: HOP-92; experiment: NCI60 five-dose screen; conditions: Homo sapiens
[25] = system: SF-539; experiment: NCI60 five-dose screen; conditions: Homo sapiens
[26] = system: NCI-H322M; experiment: NCI60 one-dose screen; conditions: Homo sapiens, read-out: Growth percent
[27] = system: MALME-3M; experiment: NCI60 five-dose screen; conditions: Homo sapiens
[28] = system: SN12C; experiment: NCI60 one-dose screen; conditions: Homo sapiens, read-out: Growth percent
[29] = system: NCI-H460; experiment: NCI60 one-dose screen; conditions: Homo sapiens
[30] = system: SR; experiment: NCI60 five-dose screen; conditions: Homo sapiens
[31] = system: Breast Cancer panel; experiment: NCI60 five-dose screen, panel mean; conditions: Homo sapiens, read-out: Mean GI50
[32] = system: A549/ATCC; experiment: NCI60 one-dose screen; conditions: Homo sapiens
[33] = system: 60 human tumor cell lines (NCI60); experiment: NCI60 five-dose screen, overall mean; conditions: 60 cell, read-out: Mean GI50, mean over all 60 cell lines
[34] = HCT-116, read-out: Growth percent
[35] = SK-MEL-28, read-out: Growth percent
[36] = SK-OV-3, read-out: Growth percent
[37] = SK-MEL-5, read-out: Growth percent
[38] = OVCAR-3, read-out: Growth percent
[39] = SNB-75, read-out: Growth percent
[40] = RPMI-8226, read-out: Growth percent
[41] = OVCAR-4, read-out: Growth percent
[42] = OVCAR-5, read-out: Growth percent
[43] = SNB-19, read-out: Growth percent
[44] = NCI-H460, read-out: Growth percent

## CCC12C=CCN3CCC4(c5ccc(OC)cc5N(C)C4C(O)(C(=O)OC)C1OC(=O)CCC[P+](c1ccc(C)cc1)(c1ccc(C)cc1)c1ccc(C)cc1)C32 (stereo not drawn) [9a]
[1]
  activity at 10 µM: -97.8%
[2]; [34]
  activity at 10 µM: -93.4%
[3]; [35]
  activity at 10 µM: -96.6%
[4]
  GI50: 785 nM
[5]; [36]
  activity at 10 µM: -81%
[6]; Malme-3M
  activity at 10 µM: -94.4%
[7]
  GI50: 8.87 µM
[8]; [37]
  activity at 10 µM: -99.4%
[9]; COLO 205
  GI50: 176 nM
[10]; 60 cell
  activity at 10 µM: -78.6%
[10]; one-dose
  average reduction / average cell death: more than 70%
[11]; [38]
  activity at 10 µM: -61.9%
[12]; [39]
  activity at 10 µM: -61.2%
[13]; [40]
  activity at 10 µM: -56.3%
[14]; HL-60
  GI50: 162 nM
[15]; K562, read-out: Growth percent
  activity at 10 µM: -13.1%
[16]; NCI-H23
  GI50: 303 nM
[17]; Hs-578T
  GI50: 344 nM
[18]; [41]
  activity at 10 µM: -73.5%
[19]; KM12
  GI50: 376 nM
[20]; SF-268
  GI50: 343 nM
[21]; [42]
  activity at 10 µM: -95.9%
[22]; [43]
  activity at 10 µM: -97.3%
[23]; DU-145
  GI50: 457 nM
[24]; HOP-92
  GI50: 187 nM
[25]; SF-539
  GI50: 338 nM
[26]
  activity at 10 µM: -98.4%
[27]; Malme-3M
  GI50: 220 nM
[28]
  activity at 10 µM: -88.1%
[29]; [44]
  activity at 10 µM: -85.2%
[30]
  GI50: 281 nM
[31]
  GI50: 270 nM
[32]; A549, read-out: Growth percent
  activity at 10 µM: -90.3%

## CC[C@]12C=CCN3CC[C@@]4(c5ccc(OC)cc5N(C)[C@H]4[C@@](O)(C(=O)OC)[C@@H]1OC(=O)CCC[P+](c1ccc(OC)cc1)(c1ccc(OC)cc1)c1ccc(OC)cc1)[C@@H]32 [9b]
[1]; 10 μM, one-dose
  activity at 10 µM: -95.8%
[2]; HCT-116, 10 μM, one-dose, read-out: Growth percent
  activity at 10 µM: -68.8%
[3]; SK-MEL-28, 10 μM, one-dose, read-out: Growth percent
  activity at 10 µM: -96.3%
[4]; Non-small Cell Lung Cancer, five-dose, read-out: GI50
  GI50: 2860 nM
[5]; SK-OV-3, 10 μM, one-dose, read-out: Growth percent
  activity at 10 µM: -85.1%
[6]; MALME-3M, 10 μM, one-dose
  activity at 10 µM: -97.8%
[7]; Ovarian Cancer, five-dose, read-out: GI50
  GI50: 18.1 µM
[8]; SK-MEL-5, 10 μM, one-dose, read-out: Growth percent
  activity at 10 µM: -99.6%
[9]; COLO 205, COLO 205, Colon Cancer, five-dose, read-out: GI50
  GI50: 194 nM
[10]; mean over 60 cell lines, 10 μM, one-dose
  activity at 10 µM: -76.2%
[10]; one-dose
  average reduction / average cell death: more than 70%
[11]; OVCAR-3, 10 μM, one-dose, read-out: Growth percent
  activity at 10 µM: -73.6%
[12]; SNB-75, 10 μM, one-dose, read-out: Growth percent
  activity at 10 µM: -34%
[13]; RPMI-8226, 10 μM, one-dose, read-out: Growth percent
  activity at 10 µM: -45.5%
[14]; HL-60, HL-60(TB), Leukemia, five-dose, read-out: GI50
  GI50: 256 nM
[15]; K562, K-562, 10 μM, one-dose, read-out: Growth percent
  activity at 10 µM: -1.75%
[16]; NCI-H23, Non-small Cell Lung Cancer, five-dose, read-out: GI50
  GI50: 671 nM
[17]; HS 578T, Breast Cancer, five-dose, read-out: GI50
  GI50: 1180 nM
[18]; OVCAR-4, 10 μM, one-dose, read-out: Growth percent
  activity at 10 µM: -75.3%
[19]; KM12, KM12, Colon Cancer, five-dose, read-out: GI50
  GI50: 628 nM
[20]; SF-268, CNS Cancer, five-dose, read-out: GI50
  GI50: 1210 nM
[21]; OVCAR-5, 10 μM, one-dose, read-out: Growth percent
  activity at 10 µM: -96.5%
[22]; SNB-19, 10 μM, one-dose, read-out: Growth percent
  activity at 10 µM: -96.7%
[23]; DU-145, Prostate Cancer, five-dose, read-out: GI50
  GI50: 955 nM
[24]; HOP-92, Non-small Cell Lung Cancer, five-dose, read-out: GI50
  GI50: 344 nM
[25]; SF-539, CNS Cancer, five-dose, read-out: GI50
  GI50: 1230 nM
[26]; 10 μM, one-dose
  activity at 10 µM: -97.7%
[27]; MALME-3M, Melanoma, five-dose, read-out: GI50
  GI50: 624 nM
[28]; 10 μM, one-dose
  activity at 10 µM: -93.4%
[29]; NCI-H460, 10 μM, one-dose, read-out: Growth percent
  activity at 10 µM: -85.2%
[30]; Leukemia, five-dose, read-out: GI50
  GI50: 389 nM
[31]; mean over Breast Cancer panel
  GI50: 640 nM
[32]; A549/ATCC, 10 μM, one-dose, read-out: Growth percent
  activity at 10 µM: -91.4%

## CC[C@]12C=CCN3CC[C@@]4(c5ccc(OC)cc5N(C)[C@H]4[C@@](O)(C(=O)OC)[C@@H]1OC(=O)CCC[P+](c1ccc(F)cc1)(c1ccc(F)cc1)c1ccc(F)cc1)[C@@H]32 [9c]
[1]
  activity at 10 µM: 101%
[33]
  GI50: 17 µM
[2]; [34]
  activity at 10 µM: 32.2%
[3]; [35]
  activity at 10 µM: -24.1%
[4]
  GI50: > 48500 nM
[5]; [36]
  activity at 10 µM: 54.7%
[6]; Malme-3M
  activity at 10 µM: -32.6%
[7]
  GI50: > 48.5 µM
[8]; [37]
  activity at 10 µM: -38.3%
[9]; COLO 205
  GI50: 4980 nM
[10]; 60 cell
  activity at 10 µM: 26.3%
[11]; [38]
  activity at 10 µM: 21.1%
[12]; [39]
  activity at 10 µM: 39.9%
[13]; [40]
  activity at 10 µM: 24.4%
[14]; HL-60
  GI50: 1770 nM
[15]; K562, read-out: Growth percent
  activity at 10 µM: 21.6%
[16]; NCI-H23
  GI50: 15800 nM
[17]; Hs-578T
  GI50: 11800 nM
[18]; [41]
  activity at 10 µM: 48.6%
[19]; KM12
  GI50: 8960 nM
[20]; SF-268
  GI50: 15000 nM
[21]; [42]
  activity at 10 µM: 67%
[22]; [43]
  activity at 10 µM: 13.8%
[23]; DU-145
  GI50: 23700 nM
[24]; HOP-92
  GI50: 5440 nM
[25]; SF-539
  GI50: 16800 nM
[26]
  activity at 10 µM: 65.2%
[27]; Malme-3M
  GI50: 6850 nM
[28]
  activity at 10 µM: 16.6%
[29]; [44]
  activity at 10 µM: 30.9%
[30]
  GI50: 7450 nM
[31]
  GI50: 8040 nM
[32]; A549, read-out: Growth percent
  activity at 10 µM: 54.5%

## CCC12C=CCN3CC[C@@]4(c5ccc(OC)cc5N(C)[C@H]4[C@@](O)(C(=O)OC)[C@@H]1OC(C)=O)[C@@H]32 (stereo partly drawn) [compound 2, vindoline]
[1]
  activity at 10 µM: 101%
[2]; [34]
  activity at 10 µM: 104%
[3]; [35]
  activity at 10 µM: 106%
[5]; [36]
  activity at 10 µM: 108%
[6]; Malme-3M
  activity at 10 µM: 98%
[8]; [37]
  activity at 10 µM: 102%
[10]; 60 cell
  activity at 10 µM: 100%
[11]; [38]
  activity at 10 µM: 112%
[12]; [39]
  activity at 10 µM: 73.1%
[13]; [40]
  activity at 10 µM: 101%
[15]; K562, read-out: Growth percent
  activity at 10 µM: 103%
[18]; [41]
  activity at 10 µM: 98.8%
[21]; [42]
  activity at 10 µM: 91.2%
[22]; [43]
  activity at 10 µM: 96.6%
[26]
  activity at 10 µM: 97.8%
[28]
  activity at 10 µM: 96.1%
[29]; [44]
  activity at 10 µM: 104%
[32]; A549, read-out: Growth percent
  activity at 10 µM: 93.5%
